The source of these data is paper PMC5871718 (Cell, 2018).

Assay [1] concerns the target T1, NUDT1 (Homo sapiens, UniProt P36639).
T1 construct: endogenous protein in THP-1 cells, identified by mass spectrometry
Description: 2D thermal proteome profiling (TMT mass spectrometry). To be noted: intact THP-1 cells, […] min, […] °C; stabilization. It counts as cell-based.

Assay [2] concerns the target T2, BRD3 (Homo sapiens, UniProt Q15059).
T2 construct: endogenous full-length protein in THP-1 cells or lysate, identified by mass spectrometry
The description is as above. It counts as cell-based. The settings on record: intact THP-1 cells, […] min, […] °C; stabilization.

The target in assay [3] is T3, SOAT1 (Homo sapiens, UniProt P35610).
T3 construct: endogenous full-length protein in THP-1 cells, identified by mass spectrometry
T3 sequence (P35610 1-550): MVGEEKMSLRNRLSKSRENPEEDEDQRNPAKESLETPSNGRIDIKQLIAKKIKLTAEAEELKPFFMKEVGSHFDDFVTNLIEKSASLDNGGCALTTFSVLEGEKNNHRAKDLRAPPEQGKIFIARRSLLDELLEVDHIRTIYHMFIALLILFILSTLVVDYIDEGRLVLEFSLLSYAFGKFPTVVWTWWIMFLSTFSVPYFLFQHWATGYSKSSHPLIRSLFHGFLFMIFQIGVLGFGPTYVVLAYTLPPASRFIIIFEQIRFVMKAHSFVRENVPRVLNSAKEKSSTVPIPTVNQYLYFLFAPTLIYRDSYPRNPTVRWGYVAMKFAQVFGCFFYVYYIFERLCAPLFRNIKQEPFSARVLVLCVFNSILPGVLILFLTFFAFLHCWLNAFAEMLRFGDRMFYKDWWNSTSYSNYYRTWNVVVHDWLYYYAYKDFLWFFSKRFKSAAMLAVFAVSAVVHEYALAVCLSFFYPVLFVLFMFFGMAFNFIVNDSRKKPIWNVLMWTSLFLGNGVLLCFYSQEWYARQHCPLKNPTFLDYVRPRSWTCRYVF
Described as above. It counts as cell-based. The settings on record: intact THP-1 cells, […] min, […] °C; stabilization; text value approximate. The text has this:
2D thermal proteome profiling (TMT mass spectrometry) on SOAT1 | stabilized SOAT1 and several members of the sterol biosynthesis pathway

In assay [4] the target is T4, FYTTD1 (Homo sapiens, UniProt Q96QD9).
T4 sequence (Q96QD9 1-318): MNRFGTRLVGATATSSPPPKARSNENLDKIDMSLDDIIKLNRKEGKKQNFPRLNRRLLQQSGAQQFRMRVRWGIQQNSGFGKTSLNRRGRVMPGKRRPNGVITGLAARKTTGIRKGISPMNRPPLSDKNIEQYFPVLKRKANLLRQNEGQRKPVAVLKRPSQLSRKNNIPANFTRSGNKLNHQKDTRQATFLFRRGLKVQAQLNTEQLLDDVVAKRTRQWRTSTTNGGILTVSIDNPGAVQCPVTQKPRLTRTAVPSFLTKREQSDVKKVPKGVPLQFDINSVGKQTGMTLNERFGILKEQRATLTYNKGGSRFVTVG
The assay is described as above. The format is cell-based. Also on record: endogenous protein in THP-1 cells, identified by mass spectrometry. The settings on record: intact THP-1 cells, […] min, […] °C; destabilization; text value approximate. An excerpt:
2D thermal proteome profiling (TMT mass spectrometry) on FYTTD1 | JQ1 further caused dose-dependent destabilization of FYTTD1

The target of assay [5] is T4, FYTTD1. Description: thermal shift of spiked recombinant protein, mass spectrometry read-out. The format is binding. Also on record: commercial recombinant protein (Abcam ab164533). To be noted: […] JQ1, […] protein in background of recombinant protein domains, […] HEPES pH […] NaCl, […] glycerol, […] Tween20; destabilization.

Broadly, the pEC50 is −log10 of the EC50, conventionally taken in molar units. Low readings indicate a high EC50, high ones a low EC50. Broadly, the EC50 is the concentration giving half of the maximal effect. Lower therefore signals greater potency.

T2 sequence (Q15059 2-726): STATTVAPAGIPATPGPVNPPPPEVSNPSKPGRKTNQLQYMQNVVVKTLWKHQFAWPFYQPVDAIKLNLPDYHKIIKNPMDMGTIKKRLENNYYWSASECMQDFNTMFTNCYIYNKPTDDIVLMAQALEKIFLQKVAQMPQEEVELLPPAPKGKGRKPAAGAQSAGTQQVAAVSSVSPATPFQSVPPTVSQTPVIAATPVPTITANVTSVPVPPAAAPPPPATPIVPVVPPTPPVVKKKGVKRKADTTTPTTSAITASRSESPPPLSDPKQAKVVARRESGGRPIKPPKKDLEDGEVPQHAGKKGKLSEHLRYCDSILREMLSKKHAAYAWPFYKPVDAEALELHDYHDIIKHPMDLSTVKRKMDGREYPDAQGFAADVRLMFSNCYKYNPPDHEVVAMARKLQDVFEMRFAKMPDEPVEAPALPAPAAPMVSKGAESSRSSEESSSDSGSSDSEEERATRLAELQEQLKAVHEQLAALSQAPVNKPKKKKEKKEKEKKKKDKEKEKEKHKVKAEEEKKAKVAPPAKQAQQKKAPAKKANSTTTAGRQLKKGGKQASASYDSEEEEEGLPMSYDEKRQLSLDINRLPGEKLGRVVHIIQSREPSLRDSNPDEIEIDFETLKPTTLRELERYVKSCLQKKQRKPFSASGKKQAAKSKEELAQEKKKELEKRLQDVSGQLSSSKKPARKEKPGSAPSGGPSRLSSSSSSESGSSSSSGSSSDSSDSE

On to `COc1cc2c(cc1-c1c(C)noc1C)ncc1[nH]c(=O)n([C@H](C)c3ccccn3)c12` [I-BET151, 7-(3,5-dimethylisoxazol-4-yl)-8-methoxy-1-((R)-1-(pyridin-2-yl)ethyl)-1H-imidazo[4,5-c]quinolin-2(3H)-one], for which the pEC50 was determined as 5.3 in assay [1] and 5.9 in assay [2].

As to `Cc1sc2c(c1C)C(c1ccc(Cl)cc1)=N[C@@H](CC(=O)OC(C)(C)C)c1nnc(C)n1-2` [JQ1], the EC50 in assay [3] and in assay [4] was approximately 1 µM in each case. Also, the thermal shift result in assay [5] is “Thermal shift assays with recombinantly expressed FYTTD1 confirmed destabilization by JQ1 binding”.
